# According to US20040097529A1, “Novel use of arylethene sulfonamide derivative” (priority 2001, published 2004):
# Where a name gives a salt, the structure may show the parent alone. Read-outs that look alike come from different tables or passages of the source. Bridge positions count the residues as written; N and C are the ends. Ends that are not written are not given here.
# Tests used:
# [1] = system: diabetic rats induced by streptozotocin (STZ); assay: Effect on the blood parameter and urinary parameter in diabetic rats induced by streptozotocin (STZ); assay type: in vivo, Wistar (Crj) rats; conditions: for Blood glucose level: enalapril maleate 10 mg/kg p.o. once a day
# Method: Wistar (Crj) rats of 9 weeks of age were divided into 5 groups so that there was no bias in urinary albumin excretion. To the 4 groups of the rats was administered intravenously STZ (50 mg/kg). […] After the lapse of 2, 4 and 6 weeks from the start of administration, urine was collected for 24 hours in a metabolic cage to measure a urinary parameter. The blood was collected from the tail vein after 2 and 4 weeks and from the abdominal aorta under anesthesia after 6 weeks to measure a blood parameter.
# (§1) The results were indicated by the mean±error. In comparison between the Sham group and the STZ-Cont. group, a t-test was made without correspondence, and when the significant level is less than 5%, it is considered as a significant difference. In comparison between the STZ-dose groups of rats, multiple comparison (Dunnett's test) was made respectively without correspondence following the variance analysis of one-way classification. When the significant level is less than 5%, it is considered as a significant difference.
# [2] = system: chronic renal failure (5/6Nx) rats; conditions: for Systolic blood pressure: tail-cuff
# Method: Male Wistar rats of 8 weeks of age were used in the experiment. A Rat was anesthetized with petobarbital and ⅔ of the left kidney was cut off, and one week after the right kidney was removed completely. Two weeks after the ⅚ nephrectomy, systolic blood pressure (SBP) was measured by a tail-cuff method, and the urine was collected in a metabolic cage for 24 hours to measure the urinary protein excretion. Rats were divided into 3 groups (each group: n=9) so that no difference occurred between the respective groups. Thereafter, a solvent (0.5% MC) was orally administered to the ⅚Nx-Cont. group at a dose of 5 ml/kg over 8 weeks. […] Similarly, to the ⅚Nx-Ena. group was administered 10 mg/kg/day of enalapril maleate dissolved in a solvent (0.5% MC). On the other hand, the solvent (0.5% MC) alone was orally administered to the abdominal-sectioned rats as a control group (Sham). Every 2 weeks, the urine was collected for 24 hours to measure the urinary protein excretion. Additionally, every 4 weeks, SBP was measured to examine the effect on the blood pressure.
# as §1, with “⅚Nx-Cont.” for “STZ-Cont.”, “⅚Nx rat-drug groups,” for “STZ-dose groups of rats,”
# [3] = system: rat's cultured mesangial cells; assay: Effect of ET on the growth and hypertrophy of rat's cultured mesangial cells; assay type: cell-based; conditions: for growth and hypertrophy of rat's cultured mesangial cells: depending on the concentration of 10^−12 to 10^−7M; for concentration of the maximum reaction (growth and hypertrophy): rat's cultured mesangial cells
# Method: In measurement of the hypertrophy activity, the cells used in the measurement of the cell growth activity using an Alamar Blue reagent were washed 3 times with a phosphate buffer, to which cells was added a direct protein-determining reagent (BioRad) to measure the absorbance at 595 nm. The protein content was calculated from the analytical curve. The protein content per the unit cell number was given as the hypertrophy activity from the cell number obtained by measurement of the growth activity.
# The results were indicated by the mean±error.
# [4] = system: STZ-induced diabetic rats; conditions: cited from earlier work
# [5] = enalapril maleate 10 mg/kg p.o.
# [6] = enalapril maleate 10 mg/kg p.o., 4 weeks
# [7] = 5/6Nx rats, enalapril maleate 10 mg/kg/day p.o., 0 week
# [8] = 5/6Nx rats, enalapril maleate 10 mg/kg/day p.o., 4 weeks
# [9] = 5/6Nx rats, enalapril maleate 10 mg/kg/day p.o., 8 weeks
# [10] = continuously injected intraperitoneally
compound,measurement,setting,value
"CCOC(=O)[C@H](CCc1ccccc1)N[C@@H](C)C(=O)N1CCC[C@H]1C(=O)O [Ena., enalapril maleate]",inhibition of elevation of creatinine clearance (Ccr),[1]; [5],there was no tendency that elevation of Ccr was inhibited
same,urinary albumin excretion (UAE) change,[1]; [5],no UAE reduction was observed
same,Blood glucose level,[1]; 2 weeks,403.0 ± 13.0 mg/dL
same,Blood glucose level,[1]; 4 weeks,393.2 ± 17.6 mg/dL
same,Blood glucose level,[1]; 6 weeks,394.3 ± 9.6 mg/dL
same,Urinary albumin excretion,"[1]; enalapril maleate 10 mg/kg p.o., 0 week",0.46 ± 0.04 mg/day
same,Urinary albumin excretion,"[1]; enalapril maleate 10 mg/kg p.o., 2 weeks",0.91 ± 0.13 mg/day
same,Blood cholesterol level,[1]; [6],148.8 ± 11.2 mg/dL
same,Urinary albumin excretion,[1]; [6],0.65 ± 0.14 mg/day
same,blood triglyceride level,[1]; [6],407.0 ± 35.7 mg/dL
same,Urinary albumin excretion,"[1]; enalapril maleate 10 mg/kg p.o., 6 weeks",1.27 ± 0.18 mg/day
same,hypotensive effect (SBP),"[2]; 5/6Nx rats, enalapril maleate 10 mg/kg/day p.o.",a hypotensive effect was markedly recognized
same,Urinary protein excretion,[2]; [7],36.9 ± 4.7 mg/day
same,Systolic blood pressure,[2]; [7],136 ± 4 mmHg
same,Urinary protein excretion,"[2]; 5/6Nx rats, enalapril maleate 10 mg/kg/day p.o., 2 weeks",45.5 ± 10.5 mg/day
same,Urinary protein excretion,[2]; [8],78.4 ± 15.3 mg/day
same,Systolic blood pressure,[2]; [8],129 ± 8 mmHg
same,Urinary protein excretion,"[2]; 5/6Nx rats, enalapril maleate 10 mg/kg/day p.o., 6 weeks",165.1 ± 28.1 mg/day
same,Urinary protein excretion,[2]; [9],261.2 ± 43.2 mg/day
same,Systolic blood pressure,[2]; [9],124 ± 6 mmHg
same,death cases (mortality in renal dysfunction cases),"[2]; 5/6Nx rats, enalapril maleate 10 mg/kg/day p.o., 9 cases per group",2
same,death cases (mortality in renal dysfunction cases),"[2]; 5/6Nx rats, enalapril maleate 10 mg/kg/day p.o., 9 cases per group, listed as enalapril",two death cases
"ET-1: Endothelin iso-peptide, endogenous physiologically active peptide consisting of 21 amino acids (CSCSSLMDKECVYFCHLDIIW; disulfide 1-15, 3-11; ends not checked; UniProt P05305 53-73, looked up)",growth and hypertrophy of rat's cultured mesangial cells,[3],promoted the growth and hypertrophy
same,concentration of the maximum reaction (growth and hypertrophy),[3],10^−8 M
"COc1ccccc1Oc1c(NS(=O)(=O)C=Cc2ccccc2)nc(-c2ncccn2)nc1OC [Compound 1, N-[6-Methoxy-5-(2-methoxyphenoxy)-2-(pyrimidin-2-yl)pyrimidin-4-yl]-2-phenylethenesulfonamide]",death cases (mortality in renal dysfunction cases),"[2]; rat, in vivo, po, 1 mg/kg/day",no death was observed
"ET-3: Endothelin iso-peptide, endogenous physiologically active peptide consisting of 21 amino acids (CTCFTYKDKECVYYCHLDIIW; disulfide 1-15, 3-11; ends not checked; UniProt P14138 97-117, looked up)",growth and hypertrophy of rat's cultured mesangial cells,[3],promoted the growth and hypertrophy
same,concentration of the maximum reaction (growth and hypertrophy),[3],10^−8 M
FR139317,plasma glucose level,[4],do not change the plasma glucose level
same,excretion of microalbuminuria,[4]; [10],reduces excretion of microalbuminuria
same,gene expression of the extracellular matrix of the glomerulus,[4]; [10],inhibits gene expression of the extracellular matrix of the glomerulus
COc1ccccc1Oc1c(NS(=O)(=O)c2ccc(C(C)(C)C)cc2)nc(-c2ncccn2)nc1OCCO [bosentan],plasma glucose level,[4],do not change the plasma glucose level
COc1cc(OC)nc(O[C@H](C(=O)O)C(OC)(c2ccccc2)c2ccccc2)n1 [darusentan],blood triglyceride level,"[4]; 100 mg/kg, p.o., decreased only in comparison with control group",decreases the blood triglyceride level
same,Blood glucose level,"[4]; 100 mg/kg, p.o.",does not change the blood glucose level
same,microalbuminuria,[4]; 100 mg/kg/day for 160 days,has a tendency to reduce microalbuminuria
